Patent US11168073B2, “3,3-difluoroallylamines or salts thereof and pharmaceutical compositions comprising the same” (YUHAN CORPORATION, priority 2018, dated 2021)
Structures can show the parent of a compound that is named as a salt. Where two headings read alike, the source gives them in different places.

Assays:
Type in all cases: biochemical
[1] = target: T1, recombinant human MAO-A (monoamine oxidase-A) (Homo sapiens, UniProt P21397); assay: Activity evaluation on recombinant human MAO-A (Amplex Red/HRP-coupled assay, 0.5 mM tyramine substrate); conditions: read-out: Inhibitory Activity (IC50, nM) MAO-A
T1 construct: purchased Sigma-Aldrich
T1 sequence (P21397 1-527): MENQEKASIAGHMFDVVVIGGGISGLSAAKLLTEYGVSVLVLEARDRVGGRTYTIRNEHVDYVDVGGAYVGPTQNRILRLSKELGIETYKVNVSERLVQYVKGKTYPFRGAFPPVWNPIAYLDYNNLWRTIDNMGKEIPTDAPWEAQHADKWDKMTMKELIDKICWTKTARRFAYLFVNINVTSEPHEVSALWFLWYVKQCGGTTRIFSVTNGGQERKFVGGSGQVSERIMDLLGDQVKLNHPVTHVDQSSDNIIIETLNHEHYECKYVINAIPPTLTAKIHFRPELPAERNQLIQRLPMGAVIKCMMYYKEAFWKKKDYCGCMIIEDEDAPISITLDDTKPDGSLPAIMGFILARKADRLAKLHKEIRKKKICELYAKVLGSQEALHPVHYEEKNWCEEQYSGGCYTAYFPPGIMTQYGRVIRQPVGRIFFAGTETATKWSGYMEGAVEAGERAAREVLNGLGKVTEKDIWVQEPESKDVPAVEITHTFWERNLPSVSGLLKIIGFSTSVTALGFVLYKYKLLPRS
In short: (§1)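 Using an HRP-coupled Amplex Red readout (544/590 nm, kinetic over 1–2 h), IC50 values were fitted by 4-parameter logistic model to percent decrease in signal rate against DMSO control. Compounds (1:3 dilutions, 8 points, <1% DMSO) sat 30 min at 37 °C with enzyme in pH 7.4 phosphate buffer before substrate, 200 uM Amplex Red and HRP were added.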

[2] = target: T2, recombinant human DAO (diamine oxidase) (Homo sapiens, UniProt P19801); assay: Activity evaluation on recombinant human DAO (Amplex Red/HRP-coupled assay, 1 mM putrescine substrate); conditions: read-out: Inhibitory Activity (IC50, nM) DAO
T2 construct: purchased R&D systems
T2 sequence (P19801 20-751): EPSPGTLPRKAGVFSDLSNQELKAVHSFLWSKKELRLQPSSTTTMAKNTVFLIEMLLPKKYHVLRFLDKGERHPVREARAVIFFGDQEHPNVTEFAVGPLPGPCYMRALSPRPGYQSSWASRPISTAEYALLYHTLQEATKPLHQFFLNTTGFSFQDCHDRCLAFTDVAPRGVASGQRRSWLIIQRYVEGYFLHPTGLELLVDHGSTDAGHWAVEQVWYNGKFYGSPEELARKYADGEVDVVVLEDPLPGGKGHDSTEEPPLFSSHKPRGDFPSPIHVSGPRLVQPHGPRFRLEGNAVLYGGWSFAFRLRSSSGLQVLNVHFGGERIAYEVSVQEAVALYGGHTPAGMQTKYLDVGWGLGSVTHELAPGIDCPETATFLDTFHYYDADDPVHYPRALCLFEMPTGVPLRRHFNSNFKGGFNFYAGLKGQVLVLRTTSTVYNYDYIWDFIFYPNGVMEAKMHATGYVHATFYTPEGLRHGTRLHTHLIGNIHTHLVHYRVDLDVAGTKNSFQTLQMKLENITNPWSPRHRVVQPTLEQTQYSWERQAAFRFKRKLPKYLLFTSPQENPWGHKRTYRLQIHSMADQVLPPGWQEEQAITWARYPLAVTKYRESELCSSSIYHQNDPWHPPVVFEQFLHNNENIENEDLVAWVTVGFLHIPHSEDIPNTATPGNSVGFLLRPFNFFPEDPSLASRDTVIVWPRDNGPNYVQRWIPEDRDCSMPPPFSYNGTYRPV
In short: as §1

recombinant human VAP-1 = target: T3, recombinant human VAP-1 (Homo sapiens, UniProt Q16853); assay: Activity evaluation on recombinant human VAP-1 (Amplex Red/HRP-coupled hydrogen peroxide assay, benzylamine substrate); conditions: read-out: Inhibitory Activity (IC50, nM) human VAP-1
T3 construct: purchased R&D systems
T3 sequence (Q16853 1-763): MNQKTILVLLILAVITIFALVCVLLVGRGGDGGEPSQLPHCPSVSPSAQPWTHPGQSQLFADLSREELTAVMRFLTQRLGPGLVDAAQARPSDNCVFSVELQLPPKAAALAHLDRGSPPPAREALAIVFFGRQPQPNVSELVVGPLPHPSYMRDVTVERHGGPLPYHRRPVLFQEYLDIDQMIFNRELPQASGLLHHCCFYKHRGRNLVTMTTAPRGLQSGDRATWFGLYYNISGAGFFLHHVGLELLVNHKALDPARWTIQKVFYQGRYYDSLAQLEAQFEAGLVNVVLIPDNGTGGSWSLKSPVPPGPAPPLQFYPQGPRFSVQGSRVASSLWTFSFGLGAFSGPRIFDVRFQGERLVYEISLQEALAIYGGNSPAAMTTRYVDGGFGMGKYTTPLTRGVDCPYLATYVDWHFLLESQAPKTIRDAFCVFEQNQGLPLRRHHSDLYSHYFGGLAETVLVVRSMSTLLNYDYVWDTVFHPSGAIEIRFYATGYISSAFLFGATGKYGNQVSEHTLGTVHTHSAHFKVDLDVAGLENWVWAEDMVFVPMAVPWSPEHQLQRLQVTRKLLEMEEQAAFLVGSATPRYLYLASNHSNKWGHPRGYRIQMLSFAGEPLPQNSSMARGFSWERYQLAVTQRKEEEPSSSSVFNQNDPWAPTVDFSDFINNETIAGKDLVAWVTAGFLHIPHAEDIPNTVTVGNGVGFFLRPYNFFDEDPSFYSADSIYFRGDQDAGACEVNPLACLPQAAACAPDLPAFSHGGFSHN
In short: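 Hydrogen peroxide from benzylamine (1 mM) oxidation by human recombinant VAP-1 detected via HRP-coupled Amplex Red (200 uM) fluorescence, kinetic over 1–2 h. Enzyme and compound preincubated 30 min at 37 °C, pH 7.4 phosphate; 8-point dose response, signal-rate decrease versus DMSO control fitted to four-parameter logistic for IC50.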

[3] = target: T4, recombinant human MAO-B (monoamine oxidase-B) (Homo sapiens, UniProt P27338); assay: Activity evaluation on recombinant human MAO-B (Amplex Red/HRP-coupled assay, 1 mM benzylamine substrate); conditions: read-out: Inhibitory Activity (IC50, nM) MAO-B
T4 construct: purchased Sigma-Aldrich
T4 sequence (P27338 1-520): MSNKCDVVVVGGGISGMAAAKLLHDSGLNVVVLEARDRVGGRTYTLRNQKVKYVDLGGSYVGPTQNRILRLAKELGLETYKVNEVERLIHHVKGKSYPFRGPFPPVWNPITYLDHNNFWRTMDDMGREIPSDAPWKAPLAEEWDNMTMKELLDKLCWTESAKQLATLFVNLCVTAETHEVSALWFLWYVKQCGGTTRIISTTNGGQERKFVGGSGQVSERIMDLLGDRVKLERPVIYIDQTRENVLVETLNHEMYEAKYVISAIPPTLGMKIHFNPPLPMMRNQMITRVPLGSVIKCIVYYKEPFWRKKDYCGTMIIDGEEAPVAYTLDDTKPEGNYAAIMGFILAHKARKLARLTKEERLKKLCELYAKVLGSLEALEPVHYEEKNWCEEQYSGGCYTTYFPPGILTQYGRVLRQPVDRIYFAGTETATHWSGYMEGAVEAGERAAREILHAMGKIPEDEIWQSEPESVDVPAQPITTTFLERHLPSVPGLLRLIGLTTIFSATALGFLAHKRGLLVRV
In short: as §1

[4] = recombinant human VAP-1, 30 min preincubation at 37° C., 1 mM benzylamine
[5] = recombinant human VAP-1, benzylamine substrate

SMILES	IC50 ([1]; 0.5 mM tyramine) [nM]	IC50 ([2]; 1 mM putrescine) [nM]	IC50 (recombinant human VAP-1; [4]) [nM]	IC50 ([3]; 1 mM benzylamine) [nM]	IC50 ([1]; 0.5 mM tyramine substrate) [nM]	IC50 ([2]; 1 mM putrescine substrate) [nM]	IC50 (recombinant human VAP-1; [5]) [nM]	IC50 ([3]; 1 mM benzylamine substrate) [nM]
NCC(Cn1ncn(Cc2ccc(-c3ccn4ncnc4c3)s2)c1=O)=C(F)F [Example 128, 2-[2-(aminomethyl)-3,3-difluoro-allyl]-4-[[5-([1,2,4]triazolo[1,5-a]pyridin-7-yl)-2-thienyl]methyl]-1,2,4-triazol-3-one Trifluoroacetate]	> 100000	97000	0.7	> 100000				
CC(=O)c1ccc(-c2cnc(-n3cnn(CC(CN)=C(F)F)c3=O)c(C)c2)s1 [Example 231, 4-[5-(5-acetyl-2-thienyl)-3-methyl-2-pyridyl]-2-[2-(aminomethyl)-3,3-difluoro-allyl]-1,2,4-triazol-3-one Trifluoroacetate]					40400	3910	0.2	1950
CCn1cc(-c2cccc(-n3cnn(CC(CN)=C(F)F)c3=O)c2)cn1 [Example 23, 2-[2-(aminomethyl)-3,3-difluoro-allyl]-4-[3-(1-ethylpyrazol-4-yl)phenyl]-1,2,4-triazol-3-one Trifluoroacetate]	> 100000	8400	3.1	> 100000				
CCn1cc(-c2cnc(-n3cnn(CC(CN)=C(F)F)c3=O)c(F)c2)cn1 [Example 88, 2-[2-(aminomethyl)-3,3-difluoro-allyl]-4-[5-(1-ethylpyrazol-4-yl)-3-fluoro-2-pyridyl]-1,2,4-triazol-3-one Trifluoroacetate]	> 100000	230	0.3	8200				
Cc1cc(C#Cc2cnn(C)c2)cnc1-n1cnn(CC(CN)=C(F)F)c1=O [Example 240, 2-[2-(aminomethyl)-3,3-difluoro-allyl]-4-[3-methyl-5-[2-(1-methylpyrazol-4-yl)ethynyl]-2-pyridyl]-1,2,4-triazol-3-one trifluoroacetate]					> 100000	30000	1	15000
CCn1cc(-c2csc(Cn3cnn(CC(CN)=C(F)F)c3=O)c2)ccc1=O [Example 193, 5-[5-[[1-[2-(aminomethyl)-3,3-difluoro-allyl]-5-oxo-1,2,4-triazol-4-yl]methyl]-3-thienyl]-1-ethyl-pyridin-2-one Trifluoroacetate]					> 100000	8700	1.3	> 100000
CCn1cc(-c2ccc3cc(Cn4cnn(CC(CN)=C(F)F)c4=O)sc3c2)cn1 [Example 204, 2-[2-(aminomethyl)-3,3-difluoro-allyl]-4-[[6-(1-ethylpyrazol-4-yl)benzothiophen-2-yl]methyl]-1,2,4-triazol-3-one Trifluoroacetate]					> 100000	41200	0.5	89900
Cc1cc(-c2cccc(S(C)(=O)=O)c2)cnc1-n1cnn(CC(CN)=C(F)F)c1=O [Example 234, 2-[2-(aminomethyl)-3,3-difluoro-allyl]-4-[3-methyl-5-(3-methylsulfonylphenyl)-2-pyridyl]-1,2,4-triazol-3-one Trifluoroacetate]					> 100000	7500	0.4	1800
Cc1cc(-c2cccc(-c3cc[nH]n3)c2)cnc1-n1cnn(CC(CN)=C(F)F)c1=O [Example 232, 2-[2-(aminomethyl)-3,3-difluoro-allyl]-4-[3-methyl-5-[3-(1H-pyrazol-3-yl)phenyl]-2-pyridyl]-1,2,4-triazol-3-one Trifluoroacetate]					> 100000	15000	0.5	1100
CCn1cc(-c2cccc(-n3cnn(CC(CN)=C(F)F)c3=O)n2)ccc1=O [Example 218, 5-[6-[1-[2-(aminomethyl)-3,3-difluoro-allyl]-5-oxo-1,2,4-triazol-4-yl]-2-pyridyl]-1-ethyl-pyridin-2-one Trifluoroacetate]					> 100000	130	0.8	> 100000
NCC(Cn1ncn(-c2cc(-c3ccc(C(F)(F)F)nc3)ccn2)c1=O)=C(F)F [Example 56, 2-[2-(aminomethyl)-3,3-difluoro-allyl]-4-[4-[6-(trifluoromethyl)-3-pyridyl]-2-pyridyl]-1,2,4-triazol-3-one Trifluoroacetate]	> 100000	75	1.6	79600				
NCC(Cn1ncn(Cc2cc(-c3ccc4c(c3)OCO4)cs2)c1=O)=C(F)F [Example 150, 2-[2-(aminomethyl)-3,3-difluoro-allyl]-4-[[4-(1,3-benzodioxol-5-yl)-2-thienyl]methyl]-1,2,4-triazol-3-one Trifluoroacetate]	> 100000	> 10000	2.9	2800				
Cc1cc(-c2ccc(N(C)C)nc2)cnc1-n1cnn(CC(CN)=C(F)F)c1=O [Example 71, 2-[2-(aminomethyl)-3,3-difluoro-allyl]-4-[5-[6-(dimethylamino)-3-pyridyl]-3-methyl-2-pyridyl]-1,2,4-triazol-3-one Trifluoroacetate]	> 100000	> 100000	0.8	> 100000				
